# Assay results from patent publication US20080249028A1, “Thyrotropin-Releasing Hormone Analogs and Method of Use” (Roger Williams Hospital, priority 2005, published 2008).
# Experiments:
# rat = conditions: injection of TRH into the rat brain; cited from earlier work
# [1] = in vivo; cited from earlier work
# pancreatic islets = test: Pancreatic islet count (HE histological staining); format: in vivo, rat; conditions: by activation of the TRH receptor
# Method: (§1) Partial pancreatic tissue was extracted with 1 N glacial acetic acid for insulin assay by ELISA. Four animals were used in each group. Each pancreas was placed in head (central) to tail (peripheral) orientation and immediately snap frozen and kept at −80° C. This orientation of the tissue provided an opportunity for sectioning of equal surface areas when cutting the frozen tissue. In this manner, the pancreas sections included every portion of the pancreas in parallel, while avoiding variations caused by sectioning from different areas. The HE histological staining was performed on serial sections (5 um thick) and islets were counted in 10 slides for each sample and standardized by dividing the total area (islets/cm^2).
# [2] = test system: STZ-induced hyperglycemic rats; test: Effect on STZ-induced hyperglycemia in rats (blood glucose level); format: in vivo, rat; conditions: for blood glucose level: Table 1, rats, STZ + compound i.p.
# Method: (§2) Male Sprague-Dawley rats (S.D. 180 g) were used in the experiments described below. The animals lived in individual metabolism cages with free access to food and water, while food and body weight were monitored daily. Peripheral blood samples (approximately 10 μl) were obtained from the tail vein of the animals. The blood glucose levels were measured by using Accu-Check Blood Glucose Meter (Roche Diagnosetics Corporation, IN). Beta cell function was evaluated once every two days over a 2-week period by an individual unaware of the treatment group. Animals were evaluated separately for blood glucose level, food intake and body weight. The endpoint check was pancreatic insulin content and pancreatic beta cell number.
# Streptozotocin (STZ) was used to chemically induce damage in pancreatic function in order to create a hyperglycemic state in the animals. Eight-week old male Sprague-Dawley rats (200.00 g±10 g) were injected with STZ by intraperitoneal (i.p.) (65 mg/kg body weight (BW)) to create hyperglycemic animals (24 to 48 hours). Blood glucose levels were monitored daily. Onset of hyperglycemia occurred usually about 24 to 48 hours after STZ administration.
# […] the seventh day or on the third day after STZ administration, which allowed for examination of the TRH/TRH analog treatment and the degree of pancreatic damage in the diabetic animal. Again, food intake, body weight and blood glucose levels of each of the animals were monitored. When hyperglycemia was determined to be reversed by TRH/TRH analog, the animal was sacrificed. Blood samples were collected for insulin assay and the pancreas and muscles were collected for further pathological and physiological tests.
# (§3) The figures shown in the tables are blood glucose levels (mg/dL; i.e., milligrams of glucose per deciliter of blood).
# [3] = test system: STZ-induced hyperglycemic rats; test: Serum insulin assay after TRH treatment of STZ rats; format: in vivo, rat; conditions: following TRH vs. control and STZ groups
# Method: as §1
# A group of animals were given a single dose i.p. of 20 μg/kg BW or […] of TRH or TRH analogs on the seventh day or on the third day after STZ administration, which allowed for examination of the TRH/TRH analog treatment and the degree of pancreatic damage in the diabetic animal. Again, food intake, body weight and blood glucose levels of each of the animals were monitored. When hyperglycemia was determined to be reversed by TRH/TRH analog, the animal was sacrificed. Blood samples were collected for insulin assay and the pancreas and muscles were collected for further pathological and physiological tests.
# [4] = test system: pancreatic beta cell function; test: Beta cell function evaluation after pancreatic damage; format: in vivo, rat; conditions: at 2 weeks after pancreatic damage
# Method: as §2
# Sprague-Dawley rats = test: Blood glucose level in rats given compound alone (no STZ); format: in vivo, rat; conditions: Table 1, rats, TRH alone (no STZ)
# Method: as §2, §3
structure (smiles),measurement,setting,value
"NC(=O)[C@@H]1CCCN1C(=O)[C@H](Cc1cnc[nH]1)NC(=O)[C@@H]1CCC(=O)N1 [TRH, L-pyroglutamyl-L-histidyl-L-prolineamide, reference compound]",blood glucose levels,rat,reduce blood glucose levels
same,plasma half-life,[1],4 to 5 min
same,number of pancreatic islets,pancreatic islets,increases
same,hyperglycemia,"[2]; TRH administration on day 3 following STZ injection, after 6 days",reversed the hyperglycemia
same,blood glucose level,[2]; Day 1,107.8 mg/dL
same,blood glucose level,[2]; Day 2,321.4 mg/dL
same,blood glucose level,[2]; Day 4,448.8 mg/dL
same,blood glucose level,[2]; Day 9,191.2 mg/dL
same,blood glucose level,[2]; Day 15,182.6 mg/dL
same,blood glucose level,[2]; Day 22,380.2 mg/dL
same,blood glucose level,[2]; Day 29,337 mg/dL
same,blood glucose level,[2]; Day 39,283.4 mg/dL
same,blood glucose level,[2]; Day 43,220.4 mg/dL
same,blood glucose level,[2]; Day 50,182 mg/dL
same,blood glucose level,[2]; Day 53,151 mg/dL
same,blood glucose level,[2]; Day 56,139 mg/dL
same,blood glucose level,[2]; Day 60,180 mg/dL
same,blood glucose level,[2]; Day 64,156 mg/dL
same,glucose levels over time,"[2]; rat treated with TRH after STZ-induced hyperglycemia, over a two month time period",continually decreased
same,STZ induced hyperglycemia,"[2]; rats, after seven days of TRH and STZ treatment",normalized
same,levels of insulin in the serum,[3],increased
same,pancreatic endocrine outcome,[4],improved
same,blood glucose level,Sprague-Dawley rats; Day 1,101.5 mg/dL
same,blood glucose level,Sprague-Dawley rats; Day 2,125 mg/dL
same,blood glucose level,Sprague-Dawley rats; Day 4,125 mg/dL
same,blood glucose level,Sprague-Dawley rats; Day 9,96 mg/dL
same,blood glucose level,Sprague-Dawley rats; Day 15,82.5 mg/dL
same,blood glucose level,Sprague-Dawley rats; Day 22,89 mg/dL
same,blood glucose level,Sprague-Dawley rats; Day 29,74.5 mg/dL
same,blood glucose level,Sprague-Dawley rats; Day 39,80 mg/dL
same,blood glucose level,Sprague-Dawley rats; Day 43,90.5 mg/dL
same,blood glucose level,Sprague-Dawley rats; Day 50,93 mg/dL
same,blood glucose level,Sprague-Dawley rats; Day 53,78 mg/dL
same,blood glucose level,Sprague-Dawley rats; Day 56,75 mg/dL
same,blood glucose level,Sprague-Dawley rats; Day 60,67 mg/dL
same,blood glucose level,Sprague-Dawley rats; Day 64,85 mg/dL
